Like-named read-outs stand apart in the source and are kept apart here. Non-standard residues stand in square brackets, D forms with d. Residues, ends and D or L forms follow the SMILES beside them. No end group written: not given here. Tle = CC(C)(C)[C@H](N)C(=O)O; Dab = NCC[C@H](N)C(=O)O; Aib = CC(C)(N)C(=O)O
What was measured:
human whole blood = assay: hemolysis risk test in human whole blood; type: cell-based; details: for Hemolysis rate (%): Human, 37 °C 1 h; for hemolysis rates: human whole blood, concentration range of 1 to 50 µM
Experimental: This test example assessed whether a polypeptide compound causes hemolytic reactions in rat, rabbit, and human whole blood.
Preparation of red blood cell suspension: 100 µL of fresh whole blood was collected, and 900 µL of 1× PBS solution was then added. The mixture was shaken on a plate shaker at 30 rpm for 5 min and then centrifuged at 1000 g for 5 min, and the supernatant was discarded. The above washing step was repeated until the supernatant no longer appeared red. The suspension was set aside for later use.
Preparation of test polypeptide solutions: An appropriate amount of 1× PBS solution was added to a powdered polypeptide, and the polypeptide was dissolved to form a standard stock solution. […] Meanwhile, blank 1× PBS was used as a negative control, and a 1× PBS solution containing 0.1% Triton X-100 was used as a positive control.
Incubation: A test solution (500 µL) was added to the red blood cell suspension, and then the mixture was well shaken on a plate shaker at 30 rpm for 5 min, incubated at 37 °C for 1 h, and centrifuged at 1000 g for 5 min.
100 µL of the supernatant was transferred to a single well of a microplate. The absorbance at 540 nm was measured using a SpectraMax M5 microplate reader, and data analysis was performed using GraphPad Prism 9. The hemolysis rate (%) was calculated using the formula: (test sample absorbance - negative control absorbance) / (positive control absorbance - negative control absorbance) × 100%. A rate of less than 5% indicates the absence of hemolysis, while a rate of greater than 5% indicates the presence of hemolysis. Table 3. Testing of the hemolysis risk of the polypeptide compound

[1] = pharmacokinetic study of different doses in rats; type: in vivo, SD rats; details: intravenous bolus injection; for AUC(0-t): blood to 180 min
Experimental: For example, at high doses, the agent causes symptoms such as tachycardia and blood pressure reduction due to excessive histamine release. Therefore, the pharmacokinetic profile of polypeptide compound 14 was assessed again using three doses: a high dose (3 nmol/g), a medium dose (1 nmol/g), and a low dose (0.3 nmol/g). […] Plasma concentration-time curves were plotted, and the pharmacokinetic parameters were calculated using WinNonlin software. Table 6. Intravenous bolus injection pharmacokinetic parameters in rats (different doses, n = 3)

histamine release [2] = assay: ability to induce histamine release in rats (plasma); type: in vivo, SD rats; set-up: Histamine levels (sums of detected histamine and 3-methylhistamine): unit not given here; details: for Histamine levels (sums of detected histamine and 3-methylhistamine): rat plasma
Experimental: With male SD rats as test animals, the ability of a polypeptide compound administered via single intravenous bolus injection to induce histamine release in rats (plasma) was studied.
This test was performed synchronously with Test Examples 3.6, with three animals per group and blood collection time points set as follows: before administration, and 2 min, 8 min, and 15 min after the end of intravenous bolus injection.
The histamine and 3-methylhistamine levels at each time point were determined by LC-MS/MS. LC-MS detection of compounds: (1) Chromatographic conditions: mobile phase A: acetonitrile/water/100 mM ammonium acetate, 50/45/5 (v/v/v), 2% FA; mobile phase B: acetonitrile/100 mM ammonium acetate, 95/5 (v/v), 2% FA; flow rate: 0.4 mL/min; chromatography column: Waters BEH HILIC 1.7 µm, 2.1 × 150 mm; column temperature: 50 °C; injection volume: 20 µL. (2) Mass-spectrometric conditions: The mass spectrometry analysis used an electrospray ionization (ESI) source, a positive ion analysis mode, and a multi-reaction monitoring (MRM) scan mode.
Sample pretreatment: A 30 µL plasma sample was taken and added to 200 µL of an acetonitrile solution containing tetradeuterated histamine (D4-histamine, 100 ng/mL). The mixture was vortexed for 1 min and then centrifuged at 5800 rpm for 10 min, and 100 µL of the supernatant was transferred to a sample tray and injected into an instrument for analysis. […] Table 7. Histamine levels at different time points

histamine release [3] = assay: ability to induce histamine release in beagle dogs (plasma); type: in vivo; set-up: Histamine levels (sums of detected histamine and 3-methylhistamine): unit not given here; details: for Histamine levels (sums of detected histamine and 3-methylhistamine): beagle dog plasma
Experimental: With beagle dogs as test animals, the ability of a polypeptide compound administered via single intravenous infusion to induce histamine release in dogs (plasma) was studied.
This test was performed synchronously with Test Examples 3.9, with four animals per group and blood collection time points set as follows: before administration (0 h), and 2 min, 5 min, and 15 min after the end of intravenous infusion.
Sample analysis and data processing were performed with reference to the methods in 3.7.3. Table 10. Histamine levels at different time points

[4] = SD, rat, plasma, 0.3 nmol/g, n = 3
[5] = SD, rat, plasma, 1 nmol/g, n = 3
[6] = SD, rat, plasma, 3 nmol/g, n = 3
[7] = 3 nmol/g, 0 min (before administration)
[8] = 3 nmol/g, 2 min after the end of intravenous bolus injection
[9] = 3 nmol/g, 8 min after the end of intravenous bolus injection
[10] = 3 nmol/g, 15 min after the end of intravenous bolus injection
[11] = 1.2 nmol/g, 0 min (before administration)
[12] = 1.2 nmol/g, 2 min after the end of intravenous infusion
[13] = 1.2 nmol/g, 5 min after the end of intravenous infusion
[14] = 1.2 nmol/g, 15 min after the end of intravenous infusion

CC(C)[C@H](NC(=O)[C@H](CC(=O)O)NC(=O)[C@@H](NC(=O)[C@@H](NC(=O)[C@@H](NC(=O)[C@@H](NC(=O)[C@H](CCN)NC(=O)C(C)(C)NC(=O)CNC(=O)[C@@H](CCCNC(=N)N)NC(=O)[C@@H](CCCNC(=N)N)NC(=O)[C@@H](CCCNC(=N)N)NC(=O)[C@@H](CCC(N)=O)NC(=O)[C@@H](CCCNC(=N)N)NC(=O)[C@@H](CCCNC(=N)N)NC(=O)[C@@H](CCCCN)NC(=O)[C@@H](CCCCN)NC(=O)[C@@H](CCCNC(=N)N)NC(=O)CNC(=O)[C@H](N)Cc1ccc(O)cc1)[C@@H](C)O)C(C)(C)C)C(C)(C)C)[C@@H](C)O)C(=O)O [Polypeptide compound 14, y-G-r-k-k-r-r-q-r-r-r-G-Aib-Dab-T-Tle-Tle-T-D-V] (H-[dY]G[dR][dK][dK][dR][dR][dQ][dR][dR][dR]G[Aib][Dab]T[Tle][Tle]TDV-OH)
Hemolysis rate (%) (human whole blood; 1.0 µM): 0.09%
Hemolysis rate (%) (human whole blood; 2.5 µM): 0.38%
Hemolysis rate (%) (human whole blood; 5.0 µM): 0.15%
Hemolysis rate (%) (human whole blood; 10 µM): 0.31%
Hemolysis rate (%) (human whole blood; 25 µM): 0.08%
Hemolysis rate (%) (human whole blood; 50 µM): 0.53%
hemolysis rates (human whole blood): less than 5%
AUC(0-t) ([1]; SD, rat, plasma, 0.3 nmol/g, n = 3, read-out: AUC(0-t)): 1230 ng·h/mL
AUC(0-inf) [1, 4]: 1280 ng·h/mL
MRT [1, 4]: 51.4 min
half-life [1, 4]: 43.4 min
Cmax ([1]; SD, rat, plasma, 0.3 nmol/g, n = 3, read-out: Cmax): 1870 ng/mL
AUC(0-t) ([1]; SD, rat, plasma, 1 nmol/g, n = 3, read-out: AUC(0-t)): 5860 ng·h/mL
AUC(0-inf) [1, 5]: 6600 ng·h/mL
MRT [1, 5]: 78.4 min
half-life [1, 5]: 58 min
Cmax ([1]; SD, rat, plasma, 1 nmol/g, n = 3, read-out: Cmax): 5970 ng/mL
AUC(0-t) ([1]; SD, rat, plasma, 3 nmol/g, n = 3, read-out: AUC(0-t)): 15000 ng·h/mL
AUC(0-inf) [1, 6]: 17700 ng·h/mL
MRT [1, 6]: 88.4 min
half-life [1, 6]: 69.2 min
Cmax ([1]; SD, rat, plasma, 3 nmol/g, n = 3, read-out: Cmax): 18300 ng/mL
Histamine levels (sums of detected histamine and 3-methylhistamine) (histamine release [2]; 0.3 nmol/g, 0 min (before administration)): 34.1±21.7
Histamine levels (sums of detected histamine and 3-methylhistamine) (histamine release [2]; 0.3 nmol/g, 2 min after the end of intravenous bolus injection): 18.2±5.2
Histamine levels (sums of detected histamine and 3-methylhistamine) (histamine release [2]; 0.3 nmol/g, 8 min after the end of intravenous bolus injection): 38.7±16.8
Histamine levels (sums of detected histamine and 3-methylhistamine) (histamine release [2]; 0.3 nmol/g, 15 min after the end of intravenous bolus injection): 45.3±3.3
Histamine levels (sums of detected histamine and 3-methylhistamine) (histamine release [2]; 1 nmol/g, 0 min (before administration)): 45.5±14.4
Histamine levels (sums of detected histamine and 3-methylhistamine) (histamine release [2]; 1 nmol/g, 2 min after the end of intravenous bolus injection): 41.9±23.3
Histamine levels (sums of detected histamine and 3-methylhistamine) (histamine release [2]; 1 nmol/g, 8 min after the end of intravenous bolus injection): 59.4±53.5
Histamine levels (sums of detected histamine and 3-methylhistamine) (histamine release [2]; 1 nmol/g, 15 min after the end of intravenous bolus injection): 71.4±38.7
Histamine levels (sums of detected histamine and 3-methylhistamine) (histamine release [2]; [7]): 50.2±28.7
Histamine levels (sums of detected histamine and 3-methylhistamine) (histamine release [2]; [8]): 754.7±448.6
Histamine levels (sums of detected histamine and 3-methylhistamine) (histamine release [2]; [9]): 558.0±405.6
Histamine levels (sums of detected histamine and 3-methylhistamine) (histamine release [2]; [10]): 265.3±145.7
increase in histamine levels (histamine release [2]; rats, medium (1 nmol/g) or low (0.3 nmol/g) dose, within 15 min): no significant increase in histamine levels
peak histamine release relative to NA-1 (histamine release [2]; rats, same high dose (3 nmol/g), 2 min): nearly twice that of NA-1

CC(C)[C@H](NC(=O)[C@H](CC(=O)O)NC(=O)[C@@H](NC(=O)[C@@H](NC(=O)[C@@H](NC(=O)[C@@H](NC(=O)[C@H](CCN)NC(=O)C(C)(C)NC(=O)CNC(=O)[C@@H](CCCNC(=N)N)NC(=O)[C@H](CCCNC(=N)N)NC(=O)[C@H](CCCNC(=N)N)NC(=O)[C@H](CCC(N)=O)NC(=O)[C@@H](CCCNC(=N)N)NC(=O)[C@H](CCCNC(=N)N)NC(=O)[C@H](CCCCN)NC(=O)[C@H](CCCCN)NC(=O)[C@H](N)CCCNC(=N)N)[C@@H](C)O)C(C)(C)C)C(C)(C)C)[C@@H](C)O)C(=O)O [Polypeptide compound 22, r-K-K-R-r-Q-R-R-r-G-Aib-Dab-T-Tle-Tle-T-D-V] (H-[dR]KKR[dR]QRR[dR]G[Aib][Dab]T[Tle][Tle]TDV-OH)
Histamine levels (sums of detected histamine and 3-methylhistamine) (histamine release [3]; 0.4 nmol/g, 0 min (before administration)): 6.28±5.01
Histamine levels (sums of detected histamine and 3-methylhistamine) (histamine release [3]; 0.4 nmol/g, 2 min after the end of intravenous infusion): 9.45±7.38
Histamine levels (sums of detected histamine and 3-methylhistamine) (histamine release [3]; 0.4 nmol/g, 5 min after the end of intravenous infusion): 11.70±8.39
Histamine levels (sums of detected histamine and 3-methylhistamine) (histamine release [3]; 0.4 nmol/g, 15 min after the end of intravenous infusion): 7.97±2.75
Histamine levels (sums of detected histamine and 3-methylhistamine) (histamine release [3]; [11]): 7.06±4.14
Histamine levels (sums of detected histamine and 3-methylhistamine) (histamine release [3]; [12]): 12.71±10.47
Histamine levels (sums of detected histamine and 3-methylhistamine) (histamine release [3]; [13]): 6.24±1.78
Histamine levels (sums of detected histamine and 3-methylhistamine) (histamine release [3]; [14]): 5.81±1.44
changes in histamine levels compared to before administration (histamine release [3]; beagle dogs, both doses (0.4 and 1.2 nmol/g)): no significant changes in histamine levels

YGRKKRRQRRRKLSSIESDV [NA-1, YGRKKRRQR RRKLSSIESDV, reference compound]
Hemolysis rate (%) (human whole blood; 1.0 µM): -0.52%
Hemolysis rate (%) (human whole blood; 2.5 µM): -0.59%
Hemolysis rate (%) (human whole blood; 5.0 µM): -0.49%
Hemolysis rate (%) (human whole blood; 10 µM): -0.54%
Hemolysis rate (%) (human whole blood; 25 µM): -0.53%
Hemolysis rate (%) (human whole blood; 50 µM): 0.06%
hemolysis rates (human whole blood): less than 5%
half-life ([1]; SD, rat, in vivo, 3 nmol/g, n = 3): 2.1 min
AUC(0-t) ([1]; 3 nmol/g, n = 3): 1149 ng·h/mL
AUC(inf) ([1]; 3 nmol/g, n = 3): 1154 ng·h/mL
Cmax ([1]; 3 nmol/g, n = 3): 7188 ng/mL
MRTO-inf ([1]; 3 nmol/g, n = 3): 7.5 min
Histamine levels (sums of detected histamine and 3-methylhistamine) (histamine release [2]; [7]): 21.0±5.9
Histamine levels (sums of detected histamine and 3-methylhistamine) (histamine release [2]; [8]): 390.7±164.2
Histamine levels (sums of detected histamine and 3-methylhistamine) (histamine release [2]; [9]): 86.6±36.6
Histamine levels (sums of detected histamine and 3-methylhistamine) (histamine release [2]; [10]): 48.3±19.2
Histamine levels (sums of detected histamine and 3-methylhistamine) (histamine release [3]; [11]): 7.08±3.15
Histamine levels (sums of detected histamine and 3-methylhistamine) (histamine release [3]; [12]): 40.47±64.51
Histamine levels (sums of detected histamine and 3-methylhistamine) (histamine release [3]; [13]): 73.95±131.85
Histamine levels (sums of detected histamine and 3-methylhistamine) (histamine release [3]; [14]): 68.80±124.89
